This note sets out measurements from patent publication US7745657B2, “D-homoandrosta-17-yl carbamate derivatives as selective glucocorticoid receptor ligands” (Merck Sharp & Dohme Corp., priority 2005, dated 2010).

The assay addresses T1, human GR (Homo sapiens, UniProt P04150).
T1 construct: U937 cells contain an endogenous glucocorticoid receptor (GR); endogenous in cells; host or cells: U937 cells stably transfected with the TNF-alpha promoter / beta-lactamase reporter
T1 sequence (P04150 1-777): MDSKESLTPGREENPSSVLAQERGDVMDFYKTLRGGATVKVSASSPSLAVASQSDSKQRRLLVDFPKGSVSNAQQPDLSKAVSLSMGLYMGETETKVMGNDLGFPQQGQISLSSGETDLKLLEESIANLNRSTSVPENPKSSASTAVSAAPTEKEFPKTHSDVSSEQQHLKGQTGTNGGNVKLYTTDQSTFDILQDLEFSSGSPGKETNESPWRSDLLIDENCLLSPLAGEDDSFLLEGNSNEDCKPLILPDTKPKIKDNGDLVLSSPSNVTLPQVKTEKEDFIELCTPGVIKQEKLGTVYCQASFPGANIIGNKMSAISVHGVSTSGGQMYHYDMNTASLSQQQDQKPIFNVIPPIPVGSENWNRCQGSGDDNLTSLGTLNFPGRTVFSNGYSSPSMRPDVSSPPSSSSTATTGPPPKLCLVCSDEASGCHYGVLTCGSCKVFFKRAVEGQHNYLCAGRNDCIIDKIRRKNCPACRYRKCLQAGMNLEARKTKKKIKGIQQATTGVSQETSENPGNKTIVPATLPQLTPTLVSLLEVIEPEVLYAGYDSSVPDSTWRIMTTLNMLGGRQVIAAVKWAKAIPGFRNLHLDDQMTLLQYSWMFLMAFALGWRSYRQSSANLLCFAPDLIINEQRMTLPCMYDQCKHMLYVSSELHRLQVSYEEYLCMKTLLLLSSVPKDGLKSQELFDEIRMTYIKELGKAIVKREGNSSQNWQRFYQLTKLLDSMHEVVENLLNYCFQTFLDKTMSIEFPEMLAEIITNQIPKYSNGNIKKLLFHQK
Briefly: Transrepression assay, TNFα-β-lactamase reporter gene in U937 cells. The settings on record: U-937, PMA/LPS stimulated, activity repressed by 100 nM dexamethasone alone set as 100%, read-out: maximal activity. The assay is classed as cell-based. An excerpt: This assay assesses the ability of test compounds to control transcription from the TNFα-β-lactamase reporter gene in U937 cells, a human myelomonocytic leukemia cell line that naturally expresses the human GR. The assay measures compound dependent-repression of the TNFα promoter linked to a reporter gene.
The human U937 cells that had been stablely transfected with the TNF-αpromoter driving β-lactamase are used for this assay. U937 cells contain an endogenous glucocorticoid receptor (GR). Cells are maintained in RPMI 1640 Growth medium (Gibco Cat#11875-093) containing 25 mM HEPES, 10% FBS, 2 mM L-Glutamine, 1 mM Sodium pyruvate, 25 μg/ml Gentamicin (Gibco Cat#15710-064), 1:1000 2-Mercaptoethanol (Gibco Cat#21985-023) and 0.8 mg/ml G418 (Gibco Cat#10131-027). The density of the cells in the flask needs to be about 1×10^6−3×10^6/ml at the time of harvest. Usually, the cells are split to 1.2˜1.4×10^5/ml (1:10) 3 days prior to the assay. 50,000 cells/well are plated in 96 well black-walled plates the day of assay. Test compounds are added 10 μL/well, and cells are incubated at 37° C. for 30˜45 min. For assaying compounds, first dilute 1:10 in DMSO to make 1 mM, then further dilute 1:100 in medium to make 10× stock prior to adding to the cells. Add 50 ng/ml PMA (Sigma, cat# P8139) 10 μL/well to a final concentration 5 ng/ml, and 1 μg/ml LPS (Sigma, cat# L4130) 10 μL/well to a final concentration 100 ng/ml. Incubate cells at 37° C. overnight for ˜18 hr. PMA is stored frozen as 100 μg/ml stock in DMSO. Dilute 1:10 in DMSO for a working stock of 10 μg/ml and store at −20 C. For assaying, dilute the 10 μg/ml working stock 1:200 in medium to make a 10× solution (50 ng/ml). Store frozen LPS at 1 mg/ml in PBS, dilute 1:1000 in medium to make 10× (1 μg/ml) for the assay. Add 6× loading buffer (CCF2-AM) 20 μL/well, and incubate at room temperature for 70˜90 min. […] The activity repressed by 100 nM dexamethasone alone is set as 100% activity.
A general note: A reporter such as luciferase makes a cellular process visible.

As for `C[C@H]1CC2C3CCC4=CC(=O)C=C[C@]4(C)[C@@]3(F)[C@@H](O)C[C@]2(C)C(=O)[C@]1(CO)OC(=O)NC12CC3CC(CC(C3)C1)C2` (stereo partly drawn) [Example 1, (11β,16β,17α)-9-fluoro-11-hydroxy-16-methyl-3,17a-dioxo-17-(hydroxymethyl)-d-homoandrosta-1,4-dien-17-yl-(1-adamantyl)carbamate], the Emax is over 5%.
As for `CC(=O)OCC1(OC(=O)NC23CC4CC(CC(C4)C2)C3)C(=O)C2(C)CC(OC(=O)C(F)(F)F)C3(F)C(CCC4=CC(=O)C=CC43C)C2CC1C` [Example 5, (11β,16β,17α)-9-fluoro-11-trifluoroacetoxy-16-methyl-3,17a-dioxo-17-[(acety1oxy)methy1]-D-homoandrosta-1,4-dien-17-yl-(1-adamantyl)carbamate], the figure is over 5%.
Next, `CC1CC2C3CCC4=CC(=O)C=CC4(C)C3(F)C(O)CC2(C)C(=O)C1(CO)OC(=O)NC1CCCCC1` [Example 9, (11β,16β,17α)-9-fluoro-11-hydroxy-16-methyl-3,17a-dioxo-17-(hydroxymethyl)-D-homoandrosta-1,4-dien-17-yl-(cyclohexyl)carbamate]: over 5%; `CC1CC2C3CCC4=CC(=O)C=CC4(C)C3(F)C(OC(=O)C(F)(F)F)CC2(C)C(=O)C1(CO)OC(=O)NC12CC3CC(CC(C3)C1)C2` [Example 7, (11β,16β,17α)-9-fluoro-11-trifluoroacetoxy-16-methyl-3,17a-dioxo-17-(hydroxymethyl)-D-homoandrostra-1,4-dien-17-yl-(1-adamantyl)carbamate]: over 5%.
Next, `CCCC(C)NC(=O)OC1(CO)C(=O)C2(C)CC(O)C3(F)C(CCC4=CC(=O)C=CC43C)C2CC1C` [Example 2, (11β,16β,17α)-9-fluoro-11-hydroxy-16-methyl-3,17a-dioxo-17-(hydroxymethyl)-D-homoandrosta-1,4-dien-17-yl-(2-pentyl)carbamate]: over 5%.
Consider `CCCC(C)CNC(=O)OC1(CO)C(=O)C2(C)CC(O)C3(F)C(CCC4=CC(=O)C=CC43C)C2CC1C` [Example 3, (11β,16β,17α)-9-fluoro-11-hydroxy-16-methyl-3,17a-dioxo-17-(hydroxymethyl)-D-homoandrosta-1,4-dien-17-yl-(2-methyl-pentyl)carbamate], for which the Emax was over 5%.
As for `CC(=O)OCC1(OC(=O)NC23CC4CC(CC(C4)C2)C3)C(=O)C2(C)CC(O)C3(F)C(CCC4=CC(=O)C=CC43C)C2CC1C` [Example 6, (11β,16β,17α)-9-fluoro-11-hydroxy-16-methyl-3,17a-dioxo-17-[(acetyloxy)methyl]-D-homoandrosta-1,4-dien-17-yl-(1-adamantyl)carbamate], the figure is over 5%.
